# “Also recorded” adds a separate entry of the source.
# Experiments:
# HL-60 cells [1] = test: Reproduction assay of HL-60 cells following sonolysis; format: cell-based; settings: sonolysis, 5 seconds, 10 W; varying concentrations
# Method: Cells were allowed to reproduce for 24 hours. Reproduction fraction ±SD (where n=6 to 8) is calculated by dividing the number of cells counted following 24 hours of reproduction by the number of cells counted at the start of incubation.
# Control data points were run in triplicate with a standard deviation of less than 10%. Sonolysis points represent an average of six separate cell suspensions, with a standard deviation of less than 10%.
# The reproduction ratio is the number of cells present one or two days post treatment divided by the number of cells present on the treatment day.
# Reproduction Assay: for FIG. 5, a reproduction assay was conducted over a period of 10 days to determine the long term viability of cells following ultrasound treatment in the presence of either HGP or OGP at concentrations where 100% protection from cytolysis occurred. The long term viability of treated cell suspensions was compared to the long term viability of untreated control cell suspensions held under exactly the same conditions (FIG. 5). Immediately following sonolysis, a 100 μl aliquot of the 1 ml treated (or control) samples was used for Coulter counter analysis in order to confirm that 100% of the cells had survived the ultrasound treatment. Viability of the cells was determined by using a very small volume (approx. 20 μl) of suspension for trypan blue staining. The remaining ≈0.9 ml cell suspensions were diluted to 3 ml with fresh medium, centrifuged, washed with fresh medium, and finally re-suspended in fresh medium (2 ml). 100 μl of this new 2 ml of cells suspended in fresh medium was then used to determine the cell concentration. This cell concentration is defined as ‘the cell concentration at Day 0 after ultrasound treatment’ (Ci). Cell suspensions were then kept at 37° C. in a 5% CO2 incubator for a total of 10 days.
# Over the 10 day period, cells had to be spun down occasionally and re-suspended in fresh medium to replenish the nutrients necessary for a healthy cell population. 100 μl aliquots of the original cell suspension were used to measure the cell concentration both before (Cfinal) and following (Cinitial) re-suspension in fresh medium. This procedure, although necessary, results in a slight underestimation in the expected number of cells on any given day, when compared to the original cell concentration, Ci. To account for this small, but significant underestimation, we calculated the actual number of cells that would have been observed had we not been periodically extracting small aliquots for the detection of cell numbers by the Coulter counter. This was done by calculating a ‘reproduction ratio’, determined by dividing Cfinal by Cinitial that was measured one or two days earlier and comparing this ratio to (Ci), to give a ‘real cell population’. It should be noted that this calculation is done simply as a matter of convenience and that the reproduction ability of the treated samples was compared to control samples that were treated in the same way over the day period, as shown in FIG. 5. Verification of this method is given by the fact that the cells of the control samples double approximately every day (FIG. 5), as expected for HL-60 cells under the conditions of incubation in the current study.
# various cells = settings: approximately 7 mM to 30 mM OGP for up to 30 minutes; cited from earlier work
# HL-60 cells [2] = test: Exposure of HL-60 cells to glucopyranosides alone (no ultrasound); settings: 15 minute exposure at highest concentrations used
# Method: Cell experiments were completed within 5 to 10 minutes of adding the glucopyranosides to the cell suspensions, and each data point represents an average ±SEM, where n=5 to 8. […] For this reason, we only studied the effects of MGP, HGP, HepGP and OGP on the ultrasound induced cytolysis of HL-60 cells.
# HL-60 cells [3] = test: Ultrasound-induced cytolysis of HL-60 cells, Coulter counter analysis; format: cell-based; settings: HL-60 cells
# Method: Cells: HL-60 myeloid leukemia cells (American Type Culture Collection) were grown in a suspension of RPMI 1640 medium (GIBCO, Gaithersburg, Md.) containing 10% calf serum. The population of HL-60 cells doubled every 23±1 hr (hour ±SEM) when incubated at 37° C. in a CO2 (5%) containing atmosphere. Cells were harvested, re-suspended in fresh RPMI medium and kept at 25° C. until the start of the experiment (typically less than 1 hr). […] The fraction of intact cells before and after ultrasound was determined using a Coulter multisizer (model IIe) connected to a sampling stand (model IIa). The number of intact cells was determined by counting the total number of particles under the bell shaped curve (e.g., FIG. 1a) before and following sonolysis. The cytolysis percentage was determined by subtracting the number of intact cells following sonolysis from the number of intact cells before sonolysis. This value was divided by the number of intact cells before sonolysis and multiplied by 100 to obtain the cytolysis percentage value.
# The temperature of the coupling water was 25° C.
# We have confirmed the validity of this technique for studying the effects of sonolysis in our ultrasound system by the trypan blue exclusion assay. The mean size of HL-60 cells was determined from the Coulter counter results prior to sonolysis and was approximately 650 μm3 (FIG. 1a) which equates to a mean cell diameter of […].
# 42 kHz sonolysis was conducted in a similar way but using a Branson ultrasound bath (model number 1510). […] At 42 kHz, a transducer was used to decrease the power of the bath to 50% of its original value. The temperature of the coupling water at all frequencies was 25° C.
# (§1) The percentage of cytolysis of HL-60 cells was determined by measurement of the cell size distribution using a Coulter multisizer. This method correlates well with percentage cytolysis measured using the Trypan blue exclusion assay immediately following sonolysis and is explained in detail elsewhere (Miyoshi, N. et al. 2003). […] This immediate ultrasound induced cytolysis (i.e., % cytolysis) is represented in FIGS. 2, 10-12 at a concentration of zero.
# 42 kHz sonolysis was conducted in a similar way but using a Branson ultrasound bath (model number […]). […] At 42 kHz, a transducer was used to decrease the power of the bath to 50% of its original value. The temperature of the coupling water at all frequencies was 25° C.
# as §1, with “represented” for “represented in FIGS. 2, 10-12”
# HL-60 cells [4] = test: Mechanical fragility test (Burrell wrist action shaker, glass beads), HL-60 cells; format: cell-based
# Method: 10 ml borosilicate glass beads in a 125 ml conical flask. 10 ml cell suspension in the presence and absence (control) of various glucopyranosides (HGP, HepGP, MGP, and OGP) in a cell culture medium containing 10% DPBS solution. Shaking was conducted over a period of 30 minutes. Each data point represents ±SD, where n=5.
# Mechanical Fragility Test: the effect of glucopyranosides on the mechanical fragility of the cells was determined by inducing mechanical shear stress to a cell suspension. This involved placing 10 mL of HL-60 cells in suspension in 125 ml sized screw capped conical flasks containing 10 mL of borosilicate solid-glass beads (Sigma-Aldrich, mean particle diameter of 3 mm), similar to the methods described elsewhere (Carstensen, E. L. et al. 1993; Miller, M. W. et al. 2003). The samples were then shaken in a Burrell wrist action shaker (model number 75, Burrell Scientific, Pittsburgh, Pa.) at 50% power for a duration of 30 minutes. Using this method, up to eight sample solutions could be run at one time. […] In samples containing glucopyranosides, the surfactant was dissolved in 1 ml of DPBS and added to 9 ml of the cell suspension.
# HL-525 cells [5] = test: Mechanical fragility of HL-525 cells; format: cell-based; settings: OGP 3 mM
# Method: Conditions: 50% power, 30 min. shaking, 10 mL borosilicate glass beads, 10 mL cell suspension.
# HL-525 cells [6] = test: Sonolysis of HL-525 cells, % cytolysis; format: cell-based; settings: 5 sec
# Method: Conditions: 42 kHz, 50% power, 5 sec, 20° C., % cytolysis ±SD (n=6).
# Conditions: 354 kHz, 15 W, 5 sec, 20° C., % cytolysis ±SD (n=6).
# Conditions: 614 kHz, 20 W, 5 sec, 20° C., % cytolysis ±SD (n=6).
# Conditions: 1057 kHz, 10 W, 5 sec, 20° C., % cytolysis ±SD (n=6).
compound,measurement,setting,value
"CCCCCCCCO[C@@H]1O[C@H](CO)[C@@H](O)[C@H](O)[C@H]1O [OGP, octyl-β-D-Glucopyranoside]",reproductive viability (reproduction fraction) over 24 hours after sonolysis,HL-60 cells [1],continue to reproduce at the same rate as untreated control samples
same,cytolytic effects,various cells,no cytolytic effects observed
same,effect on reproduction rate of the cells over 120 hours,HL-60 cells [2],no detrimental effect
same,effect on ultrasound induced cytolysis (% cytolysis),"HL-60 cells [3]; 1.057 MHz (1 MHz), 10 W, 5 s",fully protects
same,concentration giving complete (approximately 100%) protection from ultrasound induced cytolysis,"HL-60 cells [3]; 1.057 MHz (1 MHz), 10 W, 5 s, air exposed",2 mM
same,effect on ultrasound induced cytolysis,"HL-60 cells [3]; 42 kHz, 50% power, 5 s",very small sonosensitization; also recorded: weak sonosensitizer
same,effect on ultrasound induced cytolysis,"HL-60 cells [3]; 354 kHz, 15 W, 5 s",weak sonosensitizer
same,cell population protected from cytolysis,HL-60 cells [3]; 614 kHz,50%
same,change of protection from cytolysis as frequency is decreased,HL-60 cells [3]; frequency decreased from 1 MHz to 42 kHz,less effective; also recorded: most affected by the frequency of sonolysis
same,protection from mechanical induced cytolysis,"HL-60 cells [4]; 30 min shaking, 50% power, HGP 1-10 mM, HepGP 0.1-10 mM, MGP 10-30 mM, OGP 0.3-3 mM",none of the glucopyranosides tested
same,effect on mechanical destruction of cells,HL-60 cells [4]; OGP 3 mM,no effect
same,effect on mechanical destruction of cells,HL-525 cells [5],significant effect on enhancing mechanical destruction
same,protective effect for HL-525 cells compared to HL-60 cells,"HL-525 cells [6]; 1 MHz (1057 kHz), 10 W",different protection effects; also recorded: smaller protective effect
same,protective effect for HL-525 cells compared to HL-60 cells,"HL-525 cells [6]; 614 kHz, 20 W",much less pronounced; also recorded: smaller protective effect
